{"source": "ChEMBL document CHEMBL4321786", "about": "“Discovery of Small Molecule Renal Outer Medullary Potassium (ROMK) Channel Inhibitors: A Brief History of Medicinal Chemistry Approaches To Develop Novel Diuretic Therapeutics” (J Med Chem, 2019)", "key": {"[1]": {"target": "T1, ATP-sensitive inward rectifier potassium channel 1 (Rattus norvegicus, UniProt P35560)", "T1 sequence (P35560 whole entry)": "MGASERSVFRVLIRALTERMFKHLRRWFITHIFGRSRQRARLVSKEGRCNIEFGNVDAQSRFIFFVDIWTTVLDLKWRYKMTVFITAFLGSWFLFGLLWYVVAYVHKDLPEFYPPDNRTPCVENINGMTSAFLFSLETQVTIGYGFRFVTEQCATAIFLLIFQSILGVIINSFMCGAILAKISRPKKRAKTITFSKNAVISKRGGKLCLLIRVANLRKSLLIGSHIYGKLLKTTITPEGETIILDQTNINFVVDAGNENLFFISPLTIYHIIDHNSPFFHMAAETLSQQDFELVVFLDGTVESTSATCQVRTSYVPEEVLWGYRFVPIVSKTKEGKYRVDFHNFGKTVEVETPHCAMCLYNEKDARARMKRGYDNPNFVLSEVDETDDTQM", "assay": "Inhibition of rat ROMK1 expressed in HEK293 cells by Tl+ flux assay", "type": "cell-based"}, "[2]": {"target": "T2, ATP-sensitive inward rectifier potassium channel 1 (Homo sapiens, UniProt P48048)", "T2 sequence (P48048 whole entry)": "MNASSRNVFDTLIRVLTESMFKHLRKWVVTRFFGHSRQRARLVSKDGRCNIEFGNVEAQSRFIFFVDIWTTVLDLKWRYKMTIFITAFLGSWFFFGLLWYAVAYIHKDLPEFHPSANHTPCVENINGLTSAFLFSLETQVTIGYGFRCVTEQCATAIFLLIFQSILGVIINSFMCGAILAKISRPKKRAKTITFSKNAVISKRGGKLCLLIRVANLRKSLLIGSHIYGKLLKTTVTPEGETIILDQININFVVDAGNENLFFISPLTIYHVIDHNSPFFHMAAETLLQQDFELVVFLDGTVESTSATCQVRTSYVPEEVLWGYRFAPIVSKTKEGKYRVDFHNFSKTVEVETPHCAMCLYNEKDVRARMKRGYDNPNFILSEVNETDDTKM", "assay": "Inhibition of human ROMK1 expressed in CHO cells by Tl+ flux assay", "type": "cell-based"}, "[3]": {"target": "T2, ATP-sensitive inward rectifier potassium channel 1", "assay": "Inhibition of human ROMK1 expressed in HEK293 cells by Tl+ flux assay", "type": "cell-based"}, "[4]": {"target": "Voltage-gated inwardly rectifying potassium channel KCNH2 (Homo sapiens, UniProt Q12809)", "sequence (Q12809 whole entry)": "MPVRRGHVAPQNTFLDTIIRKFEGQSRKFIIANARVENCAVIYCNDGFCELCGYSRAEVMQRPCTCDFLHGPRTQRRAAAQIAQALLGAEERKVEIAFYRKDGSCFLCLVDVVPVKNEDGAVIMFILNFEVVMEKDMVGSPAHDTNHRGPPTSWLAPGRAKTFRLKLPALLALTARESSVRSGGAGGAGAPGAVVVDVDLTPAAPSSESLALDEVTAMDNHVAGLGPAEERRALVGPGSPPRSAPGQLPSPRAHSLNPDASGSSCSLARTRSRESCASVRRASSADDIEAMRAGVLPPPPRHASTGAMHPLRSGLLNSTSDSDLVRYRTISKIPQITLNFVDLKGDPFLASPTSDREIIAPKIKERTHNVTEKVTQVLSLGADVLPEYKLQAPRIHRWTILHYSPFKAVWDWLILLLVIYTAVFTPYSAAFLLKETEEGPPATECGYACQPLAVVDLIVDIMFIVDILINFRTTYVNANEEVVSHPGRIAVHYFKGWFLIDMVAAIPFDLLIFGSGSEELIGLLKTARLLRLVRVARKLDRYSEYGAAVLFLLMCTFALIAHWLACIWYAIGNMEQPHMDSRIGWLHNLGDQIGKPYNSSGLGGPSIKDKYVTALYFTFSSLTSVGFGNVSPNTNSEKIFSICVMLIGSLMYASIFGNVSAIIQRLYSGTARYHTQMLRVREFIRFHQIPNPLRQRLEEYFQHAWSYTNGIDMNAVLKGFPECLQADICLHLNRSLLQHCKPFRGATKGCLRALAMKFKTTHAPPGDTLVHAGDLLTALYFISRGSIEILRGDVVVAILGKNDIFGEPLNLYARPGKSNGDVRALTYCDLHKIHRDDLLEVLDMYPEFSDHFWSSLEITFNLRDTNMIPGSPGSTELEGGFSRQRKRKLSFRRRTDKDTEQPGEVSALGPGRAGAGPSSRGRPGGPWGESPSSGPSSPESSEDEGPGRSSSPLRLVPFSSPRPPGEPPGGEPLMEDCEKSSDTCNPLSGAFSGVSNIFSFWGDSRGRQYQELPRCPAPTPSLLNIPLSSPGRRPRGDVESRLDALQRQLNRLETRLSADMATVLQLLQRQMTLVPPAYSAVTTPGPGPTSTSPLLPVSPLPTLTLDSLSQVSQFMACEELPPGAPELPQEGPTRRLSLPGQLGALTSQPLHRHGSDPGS", "assay": "Inhibition of human ERG"}, "[5]": {"target": "T3, Inward rectifier potassium channel 13 (Homo sapiens) (UniProt O60928)", "T3 sequence (whole entry)": "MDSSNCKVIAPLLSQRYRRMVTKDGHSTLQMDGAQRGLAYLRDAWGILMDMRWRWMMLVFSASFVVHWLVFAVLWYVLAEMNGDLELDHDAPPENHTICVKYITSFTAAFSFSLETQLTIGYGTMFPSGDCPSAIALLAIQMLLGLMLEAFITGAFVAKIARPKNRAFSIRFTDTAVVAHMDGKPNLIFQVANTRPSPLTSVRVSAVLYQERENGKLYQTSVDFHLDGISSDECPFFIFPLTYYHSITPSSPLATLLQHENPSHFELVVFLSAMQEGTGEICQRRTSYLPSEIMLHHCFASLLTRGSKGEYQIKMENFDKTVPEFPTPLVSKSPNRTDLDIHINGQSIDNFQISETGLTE", "assay": "Inhibition human Kir7.1 expressed in HEK293 cells at 10 uM by whole cell patch clamp assay relative to control", "type": "cell-based"}, "HEK293 [6]": {"system": "HEK293", "assay": "Inhibition of hamster SUR1/mouse Kir6.2 expressed in HEK293 cells at 50 uM by patch clamp electrophysiology assay relative to control", "type": "cell-based"}, "[7]": {"assay": "Stability in rat liver microsomes assessed as parent compound remaining level", "type": "ADME, Microsome"}, "[8]": {"assay": "Stability in human liver microsomes assessed as parent compound remaining level", "type": "ADME, Microsome"}, "[9]": {"target": "Sodium-dependent dopamine transporter (Homo sapiens) (UniProt Q01959)", "sequence (Q01959 whole entry)": "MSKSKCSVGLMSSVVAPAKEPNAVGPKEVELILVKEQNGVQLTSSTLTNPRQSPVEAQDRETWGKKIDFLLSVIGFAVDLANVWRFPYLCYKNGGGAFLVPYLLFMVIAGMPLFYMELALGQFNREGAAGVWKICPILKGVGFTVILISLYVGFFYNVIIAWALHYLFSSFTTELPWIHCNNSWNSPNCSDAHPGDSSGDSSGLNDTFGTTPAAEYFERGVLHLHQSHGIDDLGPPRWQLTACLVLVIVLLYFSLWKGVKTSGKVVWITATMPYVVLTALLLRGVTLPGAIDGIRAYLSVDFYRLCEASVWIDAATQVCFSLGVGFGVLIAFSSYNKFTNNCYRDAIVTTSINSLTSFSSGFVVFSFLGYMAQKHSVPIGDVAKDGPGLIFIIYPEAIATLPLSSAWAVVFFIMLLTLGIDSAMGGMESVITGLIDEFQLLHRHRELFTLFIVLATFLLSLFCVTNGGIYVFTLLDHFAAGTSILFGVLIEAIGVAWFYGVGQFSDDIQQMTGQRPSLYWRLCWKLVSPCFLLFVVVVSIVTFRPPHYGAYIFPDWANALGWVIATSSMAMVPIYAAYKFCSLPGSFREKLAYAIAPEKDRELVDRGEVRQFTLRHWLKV", "assay": "Inhibition of dopamine transporter (unknown origin) at 10 uM by radioligand displacement assay relative to control"}, "[10]": {"assay": "Inhibition of GABA receptor (unknown origin) by radioligand displacement assay", "design": "species or system Homo sapiens"}, "Homo sapiens": {"species_on_record": "Homo sapiens", "assay": "Inhibition of GABA receptor (unknown origin) at 10 uM by radioligand displacement assay relative to control"}, "[11]": {"target": "T4, D(4) dopamine receptor (Homo sapiens) (UniProt P21917)", "T4 sequence (whole entry)": "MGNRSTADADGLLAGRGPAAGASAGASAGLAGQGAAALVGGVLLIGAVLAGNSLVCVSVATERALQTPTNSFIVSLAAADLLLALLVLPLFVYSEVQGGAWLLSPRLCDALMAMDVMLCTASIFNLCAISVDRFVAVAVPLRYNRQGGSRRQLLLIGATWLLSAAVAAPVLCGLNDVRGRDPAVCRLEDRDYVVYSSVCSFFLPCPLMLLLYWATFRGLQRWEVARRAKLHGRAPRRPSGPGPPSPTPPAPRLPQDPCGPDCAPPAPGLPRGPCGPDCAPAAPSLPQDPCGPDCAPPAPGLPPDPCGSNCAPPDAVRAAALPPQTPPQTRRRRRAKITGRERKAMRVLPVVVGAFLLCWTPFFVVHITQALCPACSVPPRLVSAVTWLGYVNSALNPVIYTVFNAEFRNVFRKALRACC", "assay": "Inhibition of DRD4 (unknown origin) at 10 uM by radioligand displacement assay relative to control"}, "HEK293 [12]": {"system": "HEK293", "assay": "Inhibition of hamster SUR1/mouse Kir6.2 expressed in HEK293 cells at 10 uM by patch clamp electrophysiology assay relative to control", "type": "cell-based"}, "[13]": {"assay": "Protein binding in rat plasma", "type": "ADME, cell-free", "details": "read-out: PPB (converted)"}, "[14]": {"target": "Sodium-dependent noradrenaline transporter (Homo sapiens) (UniProt P23975)", "sequence (P23975 whole entry)": "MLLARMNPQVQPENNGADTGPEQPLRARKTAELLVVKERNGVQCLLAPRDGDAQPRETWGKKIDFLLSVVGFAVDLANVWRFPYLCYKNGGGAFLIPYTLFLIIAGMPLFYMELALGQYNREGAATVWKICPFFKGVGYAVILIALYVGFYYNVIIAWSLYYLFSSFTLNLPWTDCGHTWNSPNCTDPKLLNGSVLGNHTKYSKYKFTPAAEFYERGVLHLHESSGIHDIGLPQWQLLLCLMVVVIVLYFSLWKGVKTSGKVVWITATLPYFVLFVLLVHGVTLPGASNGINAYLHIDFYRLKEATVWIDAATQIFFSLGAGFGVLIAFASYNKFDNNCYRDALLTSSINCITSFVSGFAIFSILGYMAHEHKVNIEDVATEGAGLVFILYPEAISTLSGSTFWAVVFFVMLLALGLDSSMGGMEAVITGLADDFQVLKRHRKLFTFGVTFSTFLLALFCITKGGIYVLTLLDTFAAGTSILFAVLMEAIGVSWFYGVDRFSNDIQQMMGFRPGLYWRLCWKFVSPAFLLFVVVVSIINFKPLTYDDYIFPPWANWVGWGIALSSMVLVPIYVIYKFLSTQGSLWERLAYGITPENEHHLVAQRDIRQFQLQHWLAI", "assay": "Inhibition of norepinephrine transporter (unknown origin) at 10 uM by radioligand displacement assay relative to control"}, "[15]": {"assay": "Protein binding in human plasma", "type": "ADME, cell-free", "details": "read-out: PPB (converted)"}}, "note": "pIC50: −log10 of the molar value.", "data": [{"compound": "CC1=C(N2CCC3(CCN(CCc4ccc5c(c4)Cn4nnnc4-5)CC3)C2=O)COC1=O", "values": [{"measurement": "pIC50", "setting": "[1]", "result": 8.22}]}, {"compound": "CC1=C(N2CCC3(CCN(C[C@@H](O)c4ccc5c(c4Cl)Cn4nnnc4-5)CC3)C2=O)COC1=O", "values": [{"measurement": "pIC50", "setting": "[1]", "result": 8.05}]}, {"compound": "Cc1cc(-c2ncc(CNC[C@H](O)c3ccc4c(c3C)COC4=O)s2)ccc1C#N", "values": [{"measurement": "pIC50", "setting": "[2]", "result": 8.18}]}, {"compound": "O=C1OCc2cc(C3CN4CCN(C(=O)Cc5ccc(-n6cnnn6)cc5)CC4CO3)ccc21", "note": "(stereo not given)", "values": [{"measurement": "pIC50", "setting": "[3]", "result": "6.98 to 7.19"}, {"measurement": "pIC50", "setting": "[4]", "result": "4.23 to 4.68"}]}, {"compound": "O=C1OCCc2cc([C@@H]3CN4CCN(C(=O)Cc5ccc(-n6cnnn6)cc5)C[C@H]4CO3)ccc21", "values": [{"measurement": "pIC50", "setting": "[3]", "result": 7.24}, {"measurement": "pIC50", "setting": "[4]", "result": 4.12}]}, {"compound": "Cc1c(C(O)CN2CCc3nc(-n4ncc5c(C#N)cccc54)ncc3C2)ccc2c1COC2=O", "note": "(stereo not given)", "values": [{"measurement": "pIC50", "setting": "[2]", "result": 7.42}]}, {"compound": "CC1=C(N2CCC3(CCN(C[C@H](O)c4ccc5c(c4)Cn4nnnc4-5)C[C@H]3F)C2=O)COC1=O", "note": "(stereo not given in full)", "values": [{"measurement": "pIC50", "setting": "[1]", "result": 7.37}]}, {"compound": "C[C@H]1CC2(CCN(C[C@@H](O)c3ccc4c(ccc5nnnn54)c3)CC2)C(=O)N1C1=CC(=O)OC1", "values": [{"measurement": "pIC50", "setting": "[1]", "result": 8.00}]}, {"compound": "O=[N+]([O-])c1ccc(CN2CCOCCOCCN(Cc3ccc([N+](=O)[O-])cc3)CCOCC2)cc1", "values": [{"measurement": "pIC50", "setting": "[1]", "result": 6.53}, {"measurement": "inhibition", "setting": "[5]", "result": 69, "unit": "%"}]}, {"compound": "O=[N+]([O-])c1ccc2nc(COCc3nc4ccc([N+](=O)[O-])cc4[nH]3)[nH]c2c1", "values": [{"measurement": "inhibition", "setting": "HEK293 [6]", "result": 28, "unit": "%"}, {"measurement": "Stability", "setting": "[7]", "result": 60, "unit": "%"}, {"measurement": "Stability", "setting": "[8]", "result": 80, "unit": "%"}, {"measurement": "inhibition", "setting": "[9]", "result": "> 50", "unit": "%"}, {"measurement": "pIC50", "setting": "[10]", "result": 5.21}, {"measurement": "inhibition", "setting": "Homo sapiens", "result": "> 50", "unit": "%"}, {"measurement": "inhibition", "setting": "[11]", "result": "> 50", "unit": "%"}, {"measurement": "inhibition", "setting": "HEK293 [12]", "result": 17, "unit": "%"}, {"measurement": "pIC50", "setting": "[1]", "result": 6.62}, {"measurement": "fraction unbound", "setting": "[13]", "result": 0.0161}, {"measurement": "inhibition", "setting": "[14]", "result": "> 50", "unit": "%"}, {"measurement": "fraction unbound", "setting": "[15]", "result": 0.0086}]}, {"compound": "CC1=C(N2CCC3(CCN(CC(CO)c4ccc5c(ccc6nnnn65)c4)CC3)C2=O)COC1=O", "note": "(stereo not given)", "values": [{"measurement": "pIC50", "setting": "[1]", "result": 7.74}]}, {"compound": "O=[N+]([O-])c1ccc2[nH]c(CCCc3nc4cc([N+](=O)[O-])ccc4[nH]3)nc2c1", "values": [{"measurement": "pIC50", "setting": "[1]", "result": 5.10}]}, {"compound": "CCOc1cc(-n2cc(CNC[C@H](O)c3ccc4c(c3C)COC4=O)cn2)ccc1C#N", "values": [{"measurement": "pIC50", "setting": "[2]", "result": 8.21}]}, {"compound": "Cc1c([C@@H]2CN(Cc3ccc(-n4cc(C#N)cn4)cn3)CCN2)ccc2c1COC2=O", "values": [{"measurement": "pIC50", "setting": "[2]", "result": 8.06}]}, {"compound": "Cc1c(C#N)cccc1[C@@H]1CN2CCN(C(=O)Cc3ccc(-n4cnnn4)cc3)C[C@H]2CO1", "values": [{"measurement": "pIC50", "setting": "[3]", "result": 7.22}, {"measurement": "pIC50", "setting": "[4]", "result": 4.83}]}]}
